Columns and labels:
[1] = biological target: T1, human 5-HT1A receptor (Homo sapiens, UniProt P08908); experiment: Affinity measurement of the compounds to human 5-HT1A receptor (in vitro), [3H]8-OH-DPAT binding; conditions: test compound 100 nmols/L; [3H]8-OH-DPAT 0.25 nmols/L; CHO cell membrane expressing human 5-HT1A receptor; read-out: Percent Inhibition (%) on Each Receptor's Binding at 10^−7M, 5-HT1A
T1 construct: purchased Packard Bioscience; host or cells: CHO cells (membrane preparation)
T1 sequence (P08908 1-422): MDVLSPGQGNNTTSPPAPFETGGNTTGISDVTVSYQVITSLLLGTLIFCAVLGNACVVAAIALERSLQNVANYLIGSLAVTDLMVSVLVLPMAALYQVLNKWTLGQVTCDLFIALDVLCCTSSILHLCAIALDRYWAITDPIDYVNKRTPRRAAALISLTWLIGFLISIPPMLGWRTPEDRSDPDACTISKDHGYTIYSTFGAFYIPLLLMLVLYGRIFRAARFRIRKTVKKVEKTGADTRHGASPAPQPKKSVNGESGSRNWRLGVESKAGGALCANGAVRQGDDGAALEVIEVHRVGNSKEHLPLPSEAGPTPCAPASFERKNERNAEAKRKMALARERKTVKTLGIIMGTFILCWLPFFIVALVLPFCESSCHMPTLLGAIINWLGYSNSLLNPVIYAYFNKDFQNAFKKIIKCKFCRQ
Procedure: (1) Affinity Measurement of the Compounds to Human 5-HT1A Receptor (in Vitro)
CHO cell membrane sample in which human 5-HT1A receptor was expressed (purchased from Packard Bioscience) 0.25 mL (about 50 units) was added to 24.75 mL of incubation buffer solution A (an aqueous solution of a mixture of 50 mmols/L of Tris-hydrochloric acid, 10 mmols/L of magnesium sulfate, 0.5 mmols/L of EDTA and 0.1% ascorbic acid, whose pH was adjusted to 7.4 at 27° C. with 1N-aqueous sodium hydroxide solution), and labeled as membrane sample suspension A. Separately, each test compound was made into 270 μmols/L DMSO solution and diluted to a prescribed concentration with the incubation buffer solution A, to provide a compound solution.
A piece of polypropylene tube was charged with 20 μL of [^3H]8-OH-DPAT (8-hydroxy-2-(di-n-propylamino)tetralin; purchased from Daiichi Pure Chemicals Co., Ltd.) (The concentration of the [^3H]8-OH-DPAT had been advancedly adjusted to render its concentration in the reaction mixture to 0.25 nmols/L) and 20 μL of one of the compound solutions. Further 500 μL of the membrane sample suspension A was added into the tube, followed by 60 minutes' incubation at 27° C. The reaction was terminated by rapid filtration of the reaction mixture through GF/C filter which had been advancedly immersed in a solution formed by adding to the incubation buffer solution A polyethyleneimine to a concentration of 0.3%, using Brandel cell harvester. Then the filter was washed with about 5 mL of 50 mmols/L of Tris-hydrochloric acid which had been cooled to 4° C. The filter was once again washed after similar operation.
(§1) Residual radioactivity on the filter was measured with liquid scintillation counter (Aloka Co., LSC-5100). Percent inhibition (%) of each test compound to binding of [^3H]8-OH-DPAT to 5-HT1A receptor at a concentration of 0.25 nmols/L, i.e., affinity of each test compound to 5-HT1A receptor, can be calculated according to the following expression. The ratio of non-specific binding was calculated by measuring the radioactivity in case of using 8-OH-DPAT at a concentration of 10 μmols/L, with which value the measured value of each test compound was compensated.
(§2) Affinity of each test compound to 5-HT1A receptor and 5-HT3 receptor at a concentration of 100 nmols/L were as shown in the following Tables A-1 and A-2. BRL-43694 and tropisetron (ICS 205-930), which were used in measuring affinity of those compounds to 5-HT3 receptor, have the following structures: […]

[2] = biological target: T2, human 5-HT3 receptor (Homo sapiens, UniProt P46098); experiment: Measurement of affinity to human 5-HT3 receptor (in vitro), [3H]BRL-43694 binding; conditions: test compound 100 nmols/L; [3H]BRL-43694 0.5 nmols/L; HEK-293 cell membrane expressing human 5-HT3 receptor; read-out: Percent Inhibition (%) on Each Receptor's Binding at 10^−7M, 5-HT3
T2 construct: purchased BIOLINKS K.K; host or cells: HEK-293 cells (membrane preparation)
T2 sequence (P46098 24-478): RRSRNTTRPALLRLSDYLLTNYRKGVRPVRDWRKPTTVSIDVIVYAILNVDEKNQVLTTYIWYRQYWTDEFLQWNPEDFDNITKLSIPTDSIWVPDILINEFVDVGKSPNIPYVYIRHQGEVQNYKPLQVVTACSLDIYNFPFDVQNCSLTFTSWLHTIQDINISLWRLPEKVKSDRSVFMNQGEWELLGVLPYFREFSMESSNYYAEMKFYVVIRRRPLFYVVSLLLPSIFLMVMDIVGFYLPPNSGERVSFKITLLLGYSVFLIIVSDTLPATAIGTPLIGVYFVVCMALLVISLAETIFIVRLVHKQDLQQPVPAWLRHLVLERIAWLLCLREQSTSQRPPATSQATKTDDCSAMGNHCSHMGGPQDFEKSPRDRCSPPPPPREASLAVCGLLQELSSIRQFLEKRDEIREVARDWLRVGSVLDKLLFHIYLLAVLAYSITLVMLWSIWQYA
Procedure: (2) Measurement of Affinity of Each Test Compound to Human 5-HT3 Receptor (in Vitro):
HEK-293 cell membrane sample in which human 5-HT3 receptor was expressed (purchased from BIOLINKS K.K.) 0.05 mL (about 50 microassay) was added to 24.95 mL of incubation buffer solution B (an aqueous solution of a mixture of 50 mmols/L of Tris-hydrochloric acid, 5 mmols/L of magnesium chloride and 1 mmol/L of EDTA, whose pH was adjusted to 7.5 at 25° C. with 1N-aqueous sodium hydroxide solution) and homogenized, to provide a membrane sample suspension B. Separately, each test compound was made into 270 μmols/L of DMSO solution and diluted to a prescribed concentration with the incubation buffer solution B to provide a compound solution.
A piece of polypropylene tube was charged with 20 μL of [^3H]BRL-43694 (purchased from Daiichi Pure Chemicals Co., Ltd.) (The concentration of [^3H]BRL-43694 had been advancedly adjusted to render its concentration in the reaction mixture to 0.5 nmols/L.) and 20 μL of one of the compound solutions. Further 500 μL of the membrane sample suspension B was added into the tube, followed by 60 minutes' incubation at 25° C. The reaction was terminated by rapid filtration of the reaction mixture through GF/B filter which had been advancedly immersed in a solution formed by adding to the incubation buffer solution B polyethyleneimine to a concentration of 0.5%, using Brandel cell harvester. Then the filter was washed with about 5 mL of 50 mmols/L of Tris-hydrochloric acid which had been cooled to 4° C. The filter was once again washed after similar operation.
as §1, with “(ALOKA CO., LTD.” for “(Aloka Co.,”, “[^3H]BRL-43694” for “[^3H]8-OH-DPAT”, “5-HT3” for “5-HT1A”, “0.5” for “0.25”, “tropisetron: (ICS 205-930)” for “8-OH-DPAT”
as §2

Row | inhibition at 0.1 µM [1] [%] | inhibition at 0.1 µM [2] [%] | SMILES
1 | 90.2 | 93.6 | CCn1c(CCCCN2CCN(c3ccc4ccccc4n3)CC2)nc2c(c1=O)CC(C)CC2 (centres unmarked) [Example 7-13, 3-ethyl-6-methyl-2-[4-(4-quinolin-2-ylpiperazin-1-yl)butyl]-5,6,7,8-tetrahydro-3H-quinazolin-4-one]
2 | 85 | 7.4 | Cn1c(CCCCN2CCN(c3ccc4ccccc4n3)CC2)nc2c(cnn2C)c1=O [Example 7-19, 1,5-dimethyl-6-[4-(4-quinolin-2-ylpiperazin-1-yl)butyl]-1,5-dihydropyrazolo[3,4-d]pyrimidin-4-one]
3 | 96 | 93.2 | CC1CCc2nc(CCCCN3CCN(c4ccc5ccccc5n4)CC3)n(C)c(=O)c2C1 (centres unmarked) [Example 7-12, 3,6-dimethyl-2-[4-(4-quinolin-2-ylpiperazin-1-yl)butyl]-5,6,7,8-tetrahydro-3H-quinazolin-4-one]
4 | 77 | 74.8 | Cc1sc2nc(CCCCN3CCN(c4ccc5ccccc5n4)CC3)n(C)c(=O)c2c1C [Example 7-23, 3,5,6-trimethyl-2-[4-(4-quinolin-2-ylpiperazin-1-yl)butyl]-3H-thieno[2,3-d]pyrimidin-4-one]
5 | 87 | 90.2 | Cn1c(SCCCN2CCN(c3ccc4ccccc4n3)CC2)nc2c(c1=O)CCCC2 [Example 7-27]
6 | 85.2 | 71.6 | Cn1c(CCCCN2CCN(c3ccc4ccccc4n3)CC2)nc2ccc(Br)cc2c1=O [Example 7-26, 6-bromo-3-methyl-2-[4-(4-quinolin-2-ylpiperazin-1-yl)butyl]-3H-quinazolin-4-one]
7 | 73.5 | 92.4 | Cn1c(NCCCN2CCN(c3ccc4ccccc4n3)CC2)nc2ccccc2c1=O [Example 7-30, 3-methyl-2-[3-(4-quinolin-2-ylpiperazin-1-yl)propylamine]-3H-quinazolin-4-one]

More lines, now with the values behind:

Row | SMILES | inhibition at 0.1 µM [1] [%] | inhibition at 0.1 µM [2] [%]
8 | CCC1CCc2nc(CCCCN3CCN(c4ccc5ccccc5n4)CC3)n(N)c(=O)c2C1 (centres unmarked) [Example 4-61, 3-amino-6-ethyl-2-[4-(4-quinolin-2-ylpiperazin-1-yl)butyl]-5,6,7,8-tetrahydro-3H-quinazolin-4-one] | 96.8 | 88.7
9 | CN1CCN(c2nccc3c(Cl)cccc23)CC1 [Production Example 61, 5-chloro-1-(4-methylpiperazin-1-yl)isoquinoline] | 25.3 | 94.1
10 | O[C@@H]1C[C@H]2CN(c3nccc4ccoc34)CCN2C1 [Production Example 111, 7-((7R,8aS)-7-hydroxyoctahydropyrrolo[1,2-a]pyrazin-2-yl)furo[2,3-c]-pyridine] | 48 | 95.5
11 | Cc1sc2nc(CCCCN3CCN(c4ccc5ccccc5n4)CC3)[nH]c(=O)c2c1C [Example 3-1, 5,6-dimethyl-2-[4-(4-quinolin-2-ylpiperazin-1-yl)butyl]-3H-thieno[2,3-d]pyrimidin-4-one] | 77 | 96.9
12 | NS(=O)(=O)Oc1ccc2ccnc(N3CCN4CCC[C@H]4C3)c2c1 [Production Example 87] | 96.4 | 96.9
13 | c1cc2sccc2c(N2CCN3CCC[C@@H]3C2)n1 [Production Example 109, 4-((8aR)-octahydropyrrolo[1,2-a]pyrazin-2-yl)thieno[3,2-c]pyridine] | 75.4 | 92.5
14 | c1cc2ccoc2c(N2CCNCC2)n1 [Production Example 1, 7-piperazin-1-ylfuro[2,3-c]pyridine] | 86.7 | 80.8
15 | c1cc2ccoc2c(N2CCN3CCCCC3C2)n1 (centres unmarked) [Production Example 118, 7-octahydropyrido[1,2-a]pyrazin-2-ylfuro[2,3-c]pyridine] | 76 | 84.9
16 | Nn1c(CCCCN2CCN(c3ccc4ccccc4n3)CC2)nc2c(c1=O)CC(O)CC2 (centres unmarked) [Example 4-70, 3-amino-6-hydroxy-2-[4-(4-quinolin-2-ylpiperazin-1-yl)butyl]-5,6,7,8-tetrahydro-3H-quinazolin-4-one] | 96.1 | 92.5
17 | Nn1c(CCCCN2CCN(c3ccc4ccccc4n3)CC2)nc2ccc(F)cc2c1=O [Example 4-56, 3-amino-6-fluoro-2-[4-(4-quinolin-2-ylpiperazin-1-yl)butyl]-3H-quinazolin-4-one] | 96.9 | 50.2
18 | CN1CCN(c2nccc3sc(Br)cc23)CC1 [Production Example 10, 2-bromo-4-(methylpiperazin-1-yl)thieno[3,2-c]pyridine] | 98.5 | 73.8
19 | NNc1cccc2nc(CCCCN3CCN(c4ccc5ccccc5n4)CC3)n(N)c(=O)c12 [Example 4-28, 3-amino-5-hydrazino-2-[4-(4-quinolin-2-ylpiperazin-1-yl)butyl]-3H-quinazolin-4-one] | 97.6 | 45.1

Reference: US7799775B2, “Pyrimidine derivatives” (ASKA Pharmaceutical Co., Ltd., priority 2004, dated 2010)
